Laboratory results taken from US20240226115A1, “AXL INHIBITOR COMPOUNDS” (ARCUS BIOSCIENCES, INC., priority 2021, published 2024).

Molecular target: T1, recombinant human TYRO3 (Homo sapiens, UniProt Q06418)
T1 construct: purchased Invitrogen
T1 sequence (Q06418 41-890): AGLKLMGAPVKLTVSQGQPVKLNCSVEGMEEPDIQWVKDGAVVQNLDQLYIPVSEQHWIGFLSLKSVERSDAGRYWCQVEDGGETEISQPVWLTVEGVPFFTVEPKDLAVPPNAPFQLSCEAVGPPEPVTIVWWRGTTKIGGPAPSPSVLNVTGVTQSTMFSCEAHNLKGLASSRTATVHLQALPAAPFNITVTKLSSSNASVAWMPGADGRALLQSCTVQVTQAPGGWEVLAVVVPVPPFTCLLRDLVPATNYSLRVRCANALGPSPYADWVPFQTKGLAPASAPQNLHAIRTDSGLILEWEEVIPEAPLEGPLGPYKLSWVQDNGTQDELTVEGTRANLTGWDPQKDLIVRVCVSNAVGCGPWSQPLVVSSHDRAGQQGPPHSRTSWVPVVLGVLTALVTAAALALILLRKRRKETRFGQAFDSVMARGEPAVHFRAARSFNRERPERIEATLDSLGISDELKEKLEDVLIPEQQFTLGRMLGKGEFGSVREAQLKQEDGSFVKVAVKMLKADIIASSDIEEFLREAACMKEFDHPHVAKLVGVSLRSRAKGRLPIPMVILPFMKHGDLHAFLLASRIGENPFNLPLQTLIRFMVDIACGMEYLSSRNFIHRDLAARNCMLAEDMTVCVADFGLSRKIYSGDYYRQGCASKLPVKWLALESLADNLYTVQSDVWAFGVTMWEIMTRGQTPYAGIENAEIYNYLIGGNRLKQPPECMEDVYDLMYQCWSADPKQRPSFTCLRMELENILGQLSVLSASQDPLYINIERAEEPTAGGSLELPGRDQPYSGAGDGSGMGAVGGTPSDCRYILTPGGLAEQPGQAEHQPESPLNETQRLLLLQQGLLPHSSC
Experiment: HTRF KinEASE-TK biochemical potency, TYRO3
Settings: 1 nM TYRO3, 700 μM ATP
Outline: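 Enzyme preincubated with compound 1 h at RT; final 5 nM AXL or 1 nM TYRO3/MER, 800 nM TK substrate-biotin, 700 μM ATP, HEPES pH 7.4, MgCl2, 1% DMSO, 2 h at RT. HTRF 665/620 ratio read after streptavidin-XL665/cryptate antibody detection; percent activity relative to DMSO and pre-stopped controls.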

IC50: < 100 nM
SMILES: Cc1cc2c(cc1-c1n[nH]c3ncc(-c4ccc5c(c4)CCC(N4CCC[C@H]4C)CC5)cc13)OCCNC2=O (stereo partly drawn) [Example 40, 7-Methyl-8-(5-{7-[(2R)-2-methylpyrrolidin-1-yl]-6,7,8,9-tetrahydro-5H-benzo[7]annulen-2-yl}-1H-pyrazolo[3,4-b]pyridin-3-yl)-2,3,4,5-tetrahydro-1,4-benzoxazepin-5-one]
